Assay results taken from ChEMBL document CHEMBL1201862, “PubChem BioAssay data set” (2004).
The source made the active and inactive calls.

Key:
Fatty acid synthase [1] = target: T1, Fatty acid synthase (Homo sapiens, UniProt P49327); assay: inhibition of human FAS-TE enzyme activity – biochemical, endpoint fluorescence intensity, uHTS hits, dose response (AID 624327); type: functional;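 further: fluorescence from hydrolysis of an O-methyl fluorescein acyl ester substrate by the enzyme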
Fatty acid synthase [2] = target: T1, Fatty acid synthase; assay: inhibition of human FAS-TE enzyme activity – biochemical, kinetic fluorescence intensity, dose response (AID 624326); type: functional;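 further: rate of fluorescence rise from hydrolysis of a fluorogenic O-methyl fluorescein ester substrate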
P388/ADR = assay: cells; type: functional; conditions: Mus musculus
SN12K1 = assay: cells; type: functional; conditions: Homo sapiens
P388 = assay: cells; type: functional; conditions: Mus musculus
[3] = Trypanosoma cruzi growth suppression in host cells – NIH3T3 host cells, beta-gal luminescence, confirmation (AID 2044); type: functional, cell-based;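 further: intracellular parasites grown in NIH/3T3 mouse fibroblasts as host cells; luminescent beta-galactosidase reporter signal from transgenic T. cruzi replicating inside host cells; inhibitors lower the luminescence signal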
[4] = microbe, parasite or virus in culture; type: functional; conditions: Mycobacterium tuberculosis
[5] = NIH3T3 cell viability loss – ATP luminescence, mouse fibroblasts, counter-screen, dose response (AID 2010); type: functional, cell-based;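 further: cells exposed to compound for about 90 hours before reading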
INS1 = assay: INS-1E survival protection against cytokine death – cell-based, luminescence, retest, dose response (AID 449756); type: functional; conditions: Rattus norvegicus;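 further: cell death triggered by IL-1 beta plus TNF-alpha plus IFN-gamma mixture; protective hits raise ATP signal compared with cytokine alone wells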
cells [6] = type: functional, cell-based
cells [7] = type: functional, cell-based; remark: listed apart in the source
[8] = target: Heat shock protein HSP 90-alpha (Homo sapiens, UniProt P07900); type: functional, organism-based
Leucine aminopeptidase = target: T2, Leucine aminopeptidase (Plasmodium falciparum 3D7, UniProt Q8IL11); assay: P. falciparum M17LAP inhibitors, primary screen, biochemical, fluorogenic H-Leu-NHMec substrate, 1536-well (AID 1619); type: functional
T2 sequence (Q8IL11 whole entry): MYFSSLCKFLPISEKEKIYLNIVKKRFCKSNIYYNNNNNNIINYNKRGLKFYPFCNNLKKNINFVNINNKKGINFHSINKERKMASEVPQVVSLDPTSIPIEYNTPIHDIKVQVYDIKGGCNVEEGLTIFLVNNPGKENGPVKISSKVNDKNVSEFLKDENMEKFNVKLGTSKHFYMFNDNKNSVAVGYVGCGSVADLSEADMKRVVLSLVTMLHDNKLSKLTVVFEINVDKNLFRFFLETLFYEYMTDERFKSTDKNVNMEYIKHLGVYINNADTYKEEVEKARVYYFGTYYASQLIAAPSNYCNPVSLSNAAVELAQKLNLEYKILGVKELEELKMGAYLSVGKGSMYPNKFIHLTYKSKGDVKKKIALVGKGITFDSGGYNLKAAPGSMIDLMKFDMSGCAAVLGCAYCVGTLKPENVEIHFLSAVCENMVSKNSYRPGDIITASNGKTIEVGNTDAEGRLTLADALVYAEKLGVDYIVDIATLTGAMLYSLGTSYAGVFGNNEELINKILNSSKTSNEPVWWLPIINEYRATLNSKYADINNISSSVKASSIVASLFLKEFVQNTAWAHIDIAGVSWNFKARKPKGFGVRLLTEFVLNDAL

Aminopeptidase N = target: T3, Aminopeptidase N (Plasmodium falciparum FcB1/Columbia, UniProt O96935); assay: malaria alanyl aminopeptidase activity blockers – biochemical, fluorogenic H-Leu-NHMec substrate, 1536-well (AID 1445); design: species or system Plasmodium falciparum 3D7, 3D7
T3 sequence (O96935 whole entry): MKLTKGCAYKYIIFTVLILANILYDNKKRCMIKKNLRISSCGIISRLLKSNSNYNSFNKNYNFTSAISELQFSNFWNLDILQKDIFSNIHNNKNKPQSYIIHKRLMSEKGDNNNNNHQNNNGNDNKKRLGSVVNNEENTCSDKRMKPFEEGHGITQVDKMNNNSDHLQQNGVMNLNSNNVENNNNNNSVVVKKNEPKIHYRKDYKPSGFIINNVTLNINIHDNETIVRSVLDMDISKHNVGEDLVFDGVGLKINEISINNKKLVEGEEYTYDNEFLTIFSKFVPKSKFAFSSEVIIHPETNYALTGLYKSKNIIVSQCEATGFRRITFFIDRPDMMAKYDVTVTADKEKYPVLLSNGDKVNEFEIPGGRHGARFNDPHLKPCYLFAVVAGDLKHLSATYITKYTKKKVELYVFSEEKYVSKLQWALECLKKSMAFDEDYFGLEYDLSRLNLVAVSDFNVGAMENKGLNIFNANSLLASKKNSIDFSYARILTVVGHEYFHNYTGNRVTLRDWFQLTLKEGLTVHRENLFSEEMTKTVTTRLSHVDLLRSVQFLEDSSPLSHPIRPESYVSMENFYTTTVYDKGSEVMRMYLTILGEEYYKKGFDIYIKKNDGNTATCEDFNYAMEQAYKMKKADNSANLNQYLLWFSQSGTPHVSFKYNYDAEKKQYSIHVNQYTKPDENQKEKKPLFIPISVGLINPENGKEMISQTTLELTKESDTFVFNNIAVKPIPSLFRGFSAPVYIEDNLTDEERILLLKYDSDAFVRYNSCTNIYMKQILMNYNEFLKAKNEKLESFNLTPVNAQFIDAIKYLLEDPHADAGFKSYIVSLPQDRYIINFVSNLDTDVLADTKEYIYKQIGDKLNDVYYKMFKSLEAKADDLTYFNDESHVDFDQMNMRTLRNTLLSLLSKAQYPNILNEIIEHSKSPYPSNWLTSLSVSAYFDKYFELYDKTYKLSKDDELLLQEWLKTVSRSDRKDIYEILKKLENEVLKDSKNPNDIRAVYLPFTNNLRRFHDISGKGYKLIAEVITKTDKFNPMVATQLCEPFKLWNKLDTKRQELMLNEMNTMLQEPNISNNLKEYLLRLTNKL

Cytochrome P450 2C19 = Cytochrome P450 2C19 (Homo sapiens, UniProt P33261); assay: Cytochrome panel assay with activity outcomes. Panel member name: p450-cyp2c19 Compounds with AC50 equal or less than 10 uM are considered active; type: functional
Chain of Cytochrome P450 2C19 (P33261 whole entry): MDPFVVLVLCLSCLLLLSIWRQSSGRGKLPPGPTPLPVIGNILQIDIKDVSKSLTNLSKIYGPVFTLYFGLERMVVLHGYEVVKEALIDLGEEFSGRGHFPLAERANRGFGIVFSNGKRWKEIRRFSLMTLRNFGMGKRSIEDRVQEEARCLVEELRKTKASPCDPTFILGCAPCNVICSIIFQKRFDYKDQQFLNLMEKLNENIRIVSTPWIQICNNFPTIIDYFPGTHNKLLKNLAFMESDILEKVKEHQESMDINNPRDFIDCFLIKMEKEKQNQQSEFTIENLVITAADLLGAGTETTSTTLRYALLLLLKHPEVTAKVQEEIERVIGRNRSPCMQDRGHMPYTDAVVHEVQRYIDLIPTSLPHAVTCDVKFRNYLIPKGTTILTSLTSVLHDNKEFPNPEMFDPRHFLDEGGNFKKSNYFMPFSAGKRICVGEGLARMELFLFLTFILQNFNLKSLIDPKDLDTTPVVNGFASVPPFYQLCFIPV

Cytochrome P450 2D6 = Cytochrome P450 2D6 (Homo sapiens, UniProt P10635);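 further: CYP2D6 member of a cytochrome P450 panel assay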
Chain of Cytochrome P450 2D6 (P10635 whole entry): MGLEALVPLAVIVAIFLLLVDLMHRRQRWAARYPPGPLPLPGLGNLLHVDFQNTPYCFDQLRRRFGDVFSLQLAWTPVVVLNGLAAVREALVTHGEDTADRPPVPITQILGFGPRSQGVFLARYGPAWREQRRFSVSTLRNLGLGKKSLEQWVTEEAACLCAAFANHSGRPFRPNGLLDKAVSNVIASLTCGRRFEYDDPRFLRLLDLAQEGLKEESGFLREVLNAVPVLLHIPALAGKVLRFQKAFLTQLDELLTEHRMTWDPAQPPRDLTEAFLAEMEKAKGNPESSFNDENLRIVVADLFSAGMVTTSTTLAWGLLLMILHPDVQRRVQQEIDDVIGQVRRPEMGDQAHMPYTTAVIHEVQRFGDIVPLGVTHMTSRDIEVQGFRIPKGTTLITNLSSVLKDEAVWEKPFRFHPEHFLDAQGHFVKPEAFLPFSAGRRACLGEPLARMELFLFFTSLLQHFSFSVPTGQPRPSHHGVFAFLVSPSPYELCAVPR

Cytochrome P450 3A4 = Cytochrome P450 3A4 (Homo sapiens, UniProt P08684);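 further: CYP3A4 tested as one member of a cytochrome P450 panel screen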
Chain of Cytochrome P450 3A4 (P08684 whole entry): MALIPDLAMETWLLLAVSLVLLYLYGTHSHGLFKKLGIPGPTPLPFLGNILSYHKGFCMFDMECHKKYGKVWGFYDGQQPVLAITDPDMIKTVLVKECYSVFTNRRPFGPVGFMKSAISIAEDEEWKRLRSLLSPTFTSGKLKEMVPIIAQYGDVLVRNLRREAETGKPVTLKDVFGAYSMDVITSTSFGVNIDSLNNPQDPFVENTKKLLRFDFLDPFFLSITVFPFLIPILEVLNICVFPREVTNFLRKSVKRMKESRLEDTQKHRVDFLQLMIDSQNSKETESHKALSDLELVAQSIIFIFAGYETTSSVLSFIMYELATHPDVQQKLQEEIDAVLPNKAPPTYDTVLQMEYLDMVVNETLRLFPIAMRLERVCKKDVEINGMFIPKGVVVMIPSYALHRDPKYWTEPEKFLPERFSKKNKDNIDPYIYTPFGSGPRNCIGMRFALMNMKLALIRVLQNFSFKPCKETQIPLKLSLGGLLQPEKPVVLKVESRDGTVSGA

T1 sequence (P49327 whole entry): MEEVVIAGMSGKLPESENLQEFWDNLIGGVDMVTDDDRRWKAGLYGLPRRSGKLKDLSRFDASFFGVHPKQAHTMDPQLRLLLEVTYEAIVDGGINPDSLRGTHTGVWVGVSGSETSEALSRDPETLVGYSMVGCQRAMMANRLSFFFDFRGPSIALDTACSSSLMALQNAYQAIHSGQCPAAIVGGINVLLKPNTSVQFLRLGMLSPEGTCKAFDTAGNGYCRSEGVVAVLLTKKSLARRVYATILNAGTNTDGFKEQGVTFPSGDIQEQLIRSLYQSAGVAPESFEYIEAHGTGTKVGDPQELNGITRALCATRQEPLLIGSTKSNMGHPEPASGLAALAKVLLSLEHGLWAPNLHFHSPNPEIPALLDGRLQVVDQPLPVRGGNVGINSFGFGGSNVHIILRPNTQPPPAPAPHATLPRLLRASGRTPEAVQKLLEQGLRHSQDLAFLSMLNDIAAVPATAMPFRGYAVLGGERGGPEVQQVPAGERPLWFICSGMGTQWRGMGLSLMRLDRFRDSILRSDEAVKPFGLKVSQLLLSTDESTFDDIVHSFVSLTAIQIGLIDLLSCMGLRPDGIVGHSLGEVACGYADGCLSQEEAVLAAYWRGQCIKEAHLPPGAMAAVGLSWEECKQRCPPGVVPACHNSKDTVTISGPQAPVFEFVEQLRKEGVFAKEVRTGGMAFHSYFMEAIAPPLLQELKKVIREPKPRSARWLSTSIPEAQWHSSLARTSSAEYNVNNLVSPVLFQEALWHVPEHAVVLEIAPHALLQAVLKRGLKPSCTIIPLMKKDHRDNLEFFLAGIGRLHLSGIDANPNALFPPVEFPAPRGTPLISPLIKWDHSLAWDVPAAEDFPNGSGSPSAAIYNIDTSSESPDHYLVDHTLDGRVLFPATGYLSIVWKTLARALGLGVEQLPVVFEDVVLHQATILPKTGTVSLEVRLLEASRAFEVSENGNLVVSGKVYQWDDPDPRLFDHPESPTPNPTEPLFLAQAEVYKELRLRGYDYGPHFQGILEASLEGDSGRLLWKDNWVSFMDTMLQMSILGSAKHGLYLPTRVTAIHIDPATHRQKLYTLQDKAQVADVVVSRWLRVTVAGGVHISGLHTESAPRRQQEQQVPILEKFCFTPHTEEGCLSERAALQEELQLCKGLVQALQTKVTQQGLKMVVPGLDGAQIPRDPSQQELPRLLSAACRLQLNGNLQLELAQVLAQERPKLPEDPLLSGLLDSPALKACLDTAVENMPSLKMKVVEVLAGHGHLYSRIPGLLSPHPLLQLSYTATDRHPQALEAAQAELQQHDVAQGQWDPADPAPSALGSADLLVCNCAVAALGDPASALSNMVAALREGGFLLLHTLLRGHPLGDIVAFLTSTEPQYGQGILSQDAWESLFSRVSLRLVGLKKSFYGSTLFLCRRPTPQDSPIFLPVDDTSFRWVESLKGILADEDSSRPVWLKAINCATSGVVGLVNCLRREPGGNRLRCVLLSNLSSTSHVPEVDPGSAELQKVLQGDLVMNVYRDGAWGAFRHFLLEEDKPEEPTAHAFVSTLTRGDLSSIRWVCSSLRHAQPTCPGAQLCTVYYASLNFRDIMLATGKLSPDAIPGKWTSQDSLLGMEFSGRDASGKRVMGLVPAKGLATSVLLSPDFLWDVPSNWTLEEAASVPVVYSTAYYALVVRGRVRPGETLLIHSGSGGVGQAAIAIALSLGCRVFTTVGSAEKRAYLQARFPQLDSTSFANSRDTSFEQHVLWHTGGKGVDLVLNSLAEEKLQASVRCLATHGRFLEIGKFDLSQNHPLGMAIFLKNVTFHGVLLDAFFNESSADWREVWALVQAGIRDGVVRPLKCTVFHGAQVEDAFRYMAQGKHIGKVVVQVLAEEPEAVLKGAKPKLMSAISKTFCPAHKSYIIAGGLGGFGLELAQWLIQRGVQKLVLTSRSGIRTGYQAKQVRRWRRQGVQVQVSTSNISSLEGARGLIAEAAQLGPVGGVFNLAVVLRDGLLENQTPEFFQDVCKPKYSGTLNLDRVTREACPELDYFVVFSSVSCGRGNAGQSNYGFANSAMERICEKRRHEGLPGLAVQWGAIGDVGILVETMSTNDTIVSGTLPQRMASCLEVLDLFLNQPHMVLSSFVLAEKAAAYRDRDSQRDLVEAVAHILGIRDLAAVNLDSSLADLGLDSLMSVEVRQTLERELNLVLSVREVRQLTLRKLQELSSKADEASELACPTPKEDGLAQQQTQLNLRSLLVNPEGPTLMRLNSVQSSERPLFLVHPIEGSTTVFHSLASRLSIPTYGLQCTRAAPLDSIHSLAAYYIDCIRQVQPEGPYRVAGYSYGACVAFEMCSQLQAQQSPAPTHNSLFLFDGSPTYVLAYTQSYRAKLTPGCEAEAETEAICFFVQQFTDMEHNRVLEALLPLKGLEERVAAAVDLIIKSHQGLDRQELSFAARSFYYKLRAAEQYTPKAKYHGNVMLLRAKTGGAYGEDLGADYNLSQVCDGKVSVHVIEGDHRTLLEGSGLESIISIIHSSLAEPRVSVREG

## N#Cc1cc2nc(O)c(O)nc2cc1[N+](=O)[O-]
Fatty acid synthase [1]
  IC50: 19.6 µM (active)
Fatty acid synthase [2]
  IC50: 14.8 µM (active)

## CN1CCN(c2ccc3[nH]c(-c4ccc5[nH]c(-c6ccc(O)cc6)nc5c4)nc3c2)CC1
P388/ADR
  GI50: 53.1 µM (inactive)
SN12K1
  GI50: 27 µM (inactive)
P388
  GI50: 7.94 µM (inactive)

## Cc1ccc(-n2cccc2C(=S)N=P(N(C)C)(N(C)C)N(C)C)cc1
[3]
  EC50: 0.148 µM (active)
[4]
  CC50: > 40 µM (active)
[5]
  EC50: > 30 µM (not active)
INS1
  AC50: 6.81 µM (active)

## CCOC(=O)c1c(S(=O)(=O)N2CCC(C)CC2)c(C)n(C)c1C
Cells [6]
  EC50: > 350 µM (not active)
Cells [7]
  EC50: > 350 µM (not active)

## CCCOc1ccc(C(=O)NC(=S)NCc2cccnc2)cc1
[4]
  CC50: > 40 µM (active)

## CCn1cc(C(=O)NCc2ccc(C)cc2)c(=O)c2cc(S(=O)(=O)N(C)C)ccc21
Fatty acid synthase [1]
  IC50: 11.4 µM (active)
Fatty acid synthase [2]
  IC50: 11.1 µM (active)

## Cc1cccc(C2Nc3ccccc3C(=O)N2NC(=O)c2ccc([N+](=O)[O-])cc2)n1 (stereo unspecified)
Fatty acid synthase [1]
  IC50: 10.4 µM (active)
Fatty acid synthase [2]
  IC50: 12.8 µM (active)

## COc1ccc2c(c1)OC[C@H]1[C@H]2N2C(=O)c3cc(OC)ccc3NC(=O)[C@@]2(C)[C@H]1c1ccccc1
[8]
  AC50: 16.1 µM (active)
Fatty acid synthase [1]
  IC50: 12.7 µM (active)
Fatty acid synthase [2]
  IC50: 13.7 µM (active)

## O=C(O)c1ccc(/C=C/c2ccc3cccc(O)c3n2)cc1
Leucine aminopeptidase
  IC50: 55.5 µM (active)
Aminopeptidase N
  IC50: 13 µM (active)

## O=C(CN1C(=O)C2C3CC(C(Br)C3Br)C2C1=O)N1CCOCC1 (stereo unspecified)
Leucine aminopeptidase
  IC50: 47.5 µM (active)

## Cc1c(CNc2ccc(Cl)c(C(=O)NC(CC(=O)O)C(=O)O)c2)ccc2nc(N)nc(N)c12 (stereo unspecified)
P388/ADR
  GI50: 0.049 µM (active)
SN12K1
  GI50: 0.043 µM (active)
P388
  GI50: 0.0339 µM (active)

## COc1cccc(NC(=O)c2cc([N+](=O)[O-])ccc2NC(=O)CNCC2CCCO2)c1 (stereo unspecified)
Fatty acid synthase [1]
  IC50: 12.3 µM (active)
Fatty acid synthase [2]
  IC50: 13.1 µM (active)

## c1ccc2c(c1)CCN(c1nc3cc4c(cc3s1)OCCO4)C2
[4]
  CC50: > 40 µM (active)

## COc1ccc(Nc2nnc(SCC(=O)N3CCCC3)s2)cc1
Leucine aminopeptidase
  IC50: 10.1 µM (active)

## Cc1ccc(CNc2ccc3c(c2)nc(C)n3C)cc1
Cells [6]
  EC50: > 350 µM (not active)
Cells [7]
  EC50: 34.6 µM (active)

## CN(C)C=O.O=C(COc1cccc(Cl)c1)Nc1nc(-c2ccc(S(=O)(=O)N3CCOCC3)cc2)cs1
Fatty acid synthase [1]
  IC50: 4.49 µM (active)
Fatty acid synthase [2]
  IC50: 5.53 µM (active)

## CCn1c(SCC(=O)Nc2ncc(C(F)(F)F)cc2Cl)nnc1-c1ccccc1
Fatty acid synthase [1]
  IC50: 5.96 µM (active)
Fatty acid synthase [2]
  IC50: 4.08 µM (active)

## O=C(O)C1CC=CCC1C(=O)Nc1cccc(F)c1 (stereo unspecified)
Leucine aminopeptidase
  IC50: 14.6 µM (active)

## O=C(NCCCN1CCN(c2ccccc2F)CC1)Nc1ccccc1[N+](=O)[O-]
Cells [6]
  EC50: > 350 µM (not active)
Cells [7]
  EC50: > 350 µM (not active)

## COc1ccc(S(=O)(=O)N/N=C/C(=O)O)cc1
P388/ADR
  GI50: 212 µM (inactive)
SN12K1
  GI50: 360 µM (inactive)
P388
  GI50: 255 µM (inactive)

## CNC(=O)OCc1nc(SC)n(C)c1COC(=O)NC
P388/ADR
  GI50: 147 µM (inactive)
SN12K1
  GI50: 115 µM (inactive)
P388
  GI50: 75 µM (inactive)

## C/C=C(\C)c1cc(=O)c2c(C)cc3c(c2o1)C(=O)c1c(O)c(C2CC(C)(N(C)C)C(O)C(C)O2)cc(C2CC(N(C)C)C(O)C(C)O2)c1C3=O (stereo unspecified)
P388/ADR
  GI50: 3.08 µM (inactive)
SN12K1
  GI50: 1.26 µM (inactive)
P388
  GI50: 0.964 µM (active)

## CC(C)=CC(=O)OC1C2C(C)C(=O)OC2C(O)C(C)C2C=CC(=O)C21C (stereo unspecified)
P388/ADR
  GI50: 0.615 µM (active)
SN12K1
  GI50: 2.39 µM (inactive)
P388
  GI50: 0.627 µM (active)

## CC(C)CCCCCCCCCCCCC(=O)NCC(=O)NC1C(C)OC(Nc2ncnc3c2ncn3C)C(O)C1O (stereo unspecified)
P388/ADR
  GI50: > 100 µM (inactive)
SN12K1
  GI50: 7.66 µM (inactive)
P388
  GI50: 6.03 µM (inactive)

## CN1OC(=O)N(C)C1c1ccccc1 (stereo unspecified)
P388/ADR
  GI50: > 100 µM (inactive)
SN12K1
  GI50: > 100 µM (inactive)
P388
  GI50: > 100 µM (inactive)

## COc1cc(C2c3cc4c(cc3[C@@H](Nc3ccc(C#N)cc3)C3COC(=O)[C@H]23)OCO4)cc(OC)c1O (stereo partly specified)
P388/ADR
  GI50: 0.352 µM (active)
SN12K1
  GI50: 0.0736 µM (active)
P388
  GI50: 0.00998 µM (active)

## CCCCOC(=O)NS(=O)(=O)c1sc(CC(C)C)cc1-c1ccc(Cn2c(CC)nc3c(C)cc(C)nc32)cc1
[4]
  CC50: 20.3 µM (active)
Cytochrome P450 2C19; read-out: AC50
  AC50: 15.8 µM (inconclusive)
Cytochrome P450 2D6
  AC50: 15.8 µM (inconclusive)

## O=C(Cn1nc2ccccc2n1)N/N=C/c1cc(Cl)cc([N+](=O)[O-])c1O
Aminopeptidase N
  IC50: 45.2 µM (active)
Fatty acid synthase [1]
  IC50: 8.31 µM (active)
Fatty acid synthase [2]
  IC50: 6.5 µM (active)

## Oc1ccc(/C=N/NC(=S)NC2CC3CCC2C3)cc1 (stereo unspecified)
Cells [6]
  EC50: > 350 µM (not active)
Cells [7]
  EC50: > 350 µM (not active)

## CC1=NNC(=O)C1CCC(=O)N/N=C/c1ccc(Cl)cc1 (stereo unspecified)
Leucine aminopeptidase
  IC50: 52.6 µM (active)

## O=c1cc(CSc2ccccc2)[nH]c(=S)[nH]1
Leucine aminopeptidase
  IC50: 12.5 µM (active)
Cytochrome P450 2C19
  AC50: inconclusive
Cytochrome P450 3A4
  AC50: 28.2 µM (inconclusive)
